Data reported in patent publication US6541463B1, “Inhibitors of type 5 and type 3 17β-hydroxysteroid dehydrogenase and methods for their use” (Endorecherche, Inc., priority 1998, dated 2003).
Where two headings read alike, the source gives them in different places.

Key:
[1] = molecular target: T1, androgen receptor (Rattus norvegicus, UniProt P15207); test: Androgen receptor (AR) assay: inhibition of [3H]R1881 binding, prostate cytosol
T1 construct: from tissue; host or cells: ventral prostate cytosol of gonadectomized male Sprague-Dawley rats
T1 sequence (P15207 1-902): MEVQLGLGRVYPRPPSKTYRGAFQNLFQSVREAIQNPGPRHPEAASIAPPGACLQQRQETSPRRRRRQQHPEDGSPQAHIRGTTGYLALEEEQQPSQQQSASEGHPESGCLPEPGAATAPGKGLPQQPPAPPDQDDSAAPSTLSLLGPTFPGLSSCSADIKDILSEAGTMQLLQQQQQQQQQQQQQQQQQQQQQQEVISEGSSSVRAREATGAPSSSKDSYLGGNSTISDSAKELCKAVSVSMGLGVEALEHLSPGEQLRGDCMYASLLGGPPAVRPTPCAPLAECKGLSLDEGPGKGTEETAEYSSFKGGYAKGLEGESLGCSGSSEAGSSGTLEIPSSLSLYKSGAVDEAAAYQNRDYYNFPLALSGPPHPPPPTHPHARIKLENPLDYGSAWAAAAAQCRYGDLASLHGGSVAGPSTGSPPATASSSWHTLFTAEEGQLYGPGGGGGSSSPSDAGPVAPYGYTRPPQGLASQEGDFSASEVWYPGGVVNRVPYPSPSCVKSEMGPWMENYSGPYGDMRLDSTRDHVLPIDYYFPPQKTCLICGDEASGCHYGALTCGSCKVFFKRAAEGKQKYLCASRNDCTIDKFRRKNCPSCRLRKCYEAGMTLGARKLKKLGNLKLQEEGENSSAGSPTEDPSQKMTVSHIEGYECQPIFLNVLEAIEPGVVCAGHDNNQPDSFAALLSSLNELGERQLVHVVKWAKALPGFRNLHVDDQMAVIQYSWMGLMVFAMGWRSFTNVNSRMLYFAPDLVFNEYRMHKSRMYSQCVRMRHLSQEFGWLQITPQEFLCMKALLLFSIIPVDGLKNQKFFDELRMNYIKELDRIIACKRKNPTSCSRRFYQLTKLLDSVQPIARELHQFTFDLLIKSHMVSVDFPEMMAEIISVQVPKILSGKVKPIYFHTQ
Method: The manner in which the percentage of inhibition is determined is described in “Other Tests; D-Androgen Receptor (AR) Assays”. Lower numbers are desirable.
(§1) Male Sprague-Dawley rats (Crl: CD(SD)Br) weighing 200-300 g were obtained from Charles-River Inc. (St-Constant, Québec, Canada). The rats were gonadectomized under general anesthesia (Isoflurane) and killed by cervical dislocation 24 hours later. The ventral prostates were rapidly removed, dissected free from adhering tissue and frozen on dry-ice. Prostates were kept at −80° C. until assay.
All subsequent steps were performed at 0-4° C. Prostates were homogenized in 5 vol (wt/vol) of buffer A (25 mM Tris-HCl, 1.5 mM EDTA disodium salt, 10 mM α-monothioglycerol, 10% glycerol, and 10 mM sodium molybdate, pH 7.4), using a Polytron PT-10 homogenizer (Brinkman Instruments, Canada) at a setting of 5 for three periods of 10 sec, with intervals of 10 sec for cooling. The homogenate was then centrifuged at 105,000×g for 60 min in a Beckman L5-65 ultracentrifuge (Fullerton, Calif.).
Androgen binding was measured using the hydroxylapatite assay (HAP). In brief, the radioactive steroid [^3H]R1881 solubilized in ethanol was diluted into buffer A. Aliquots of prostate cytosol preparation (0.1 ml) were then incubated with 8 nM [^3H]R1881 (0.1 ml, ˜200,000 cpm) in the presence or absence of the indicated concentrations of unlabeled compounds (0.1 ml, prepared in buffer A containing 10% ethanol) for 16-18 h at 0-4° C. […] Unbound steroids were separated by incubation for 40 min at 0-4° C. with 0.3 ml HAP prepared in buffer P (50 mM, Tris-HCl, 10 mM KH2PO4, pH 7.4) as follows: 10 g HAP were washed with buffer P until the supernatant reached a pH of 7.4 and then following centrifugation and decantation of the supernatant, 37.5 ml of buffer P were added. After incubation with HAP and 10 minutes of centrifugation at 1,000×g, the pellet was washed 3 times with 1 ml buffer P. Thereafter, the radioactivity was extracted from the pellet by incubation at room temperature for 60 minutes with 1 ml EtOH. After centrifugation, the supernatant was decanted into a scintillation vial and the pellet was extracted again with ethanol.

[2] = test system: progesterone receptor; test: Progesterone receptor assay: inhibition of [3H]R5020 binding, uterine cytosol; parameters: species or system rat
Method: The manner in which the percentage of inhibition is determined is described in “Other Tests; E-Progesterone Receptor Assay”. Lower numbers are desirable.
[17α-methyl-^3H]-promegestone (R5020) (84 Ci/mmol) and the corresponding unlabeled compound were purchased from New England Nuclear (Lachine, Québec, Canada). All other chemicals were of analytical grade.
Stock solutions of the unlabeled steroids were kept at 4° C. in ethanol. The desired steroid solutions were then prepared by appropriate dilution in buffer B (10 mM Tris-HCl, 1.5 mM EDTA, 10 mM α-monothioglycerol, pH 7.4) containing 30% ethanol.
as §1, with “Female” for “Male”, “rats” for “rats (Crl: CD(SD)Br)”, “uteri are” for “ventral prostates were”, “Tissues” for “Prostates”, “use.” for “assay.”
All procedures were performed at 4° C. Tissues were pulverized frozen in dry ice with a Thermovac pulverizer. The samples were then homogenized in 10 vol (w/v) of buffer A (25 mM Tris-HCl, 1.5 mM EDTA, 10 mM α-monothioglycerol, 10% glycerol, 10 mM sodium molybdate, pH 7.4) using a Polytron PT-10 homogenizer (Brinkmann Instruments, Canada) at a setting of 5 for two periods of 10 sec, with intervals of 10 sec for cooling. The homogenate was then centrifuged at 105,000×g for 90 min. The supernatant was used immediately for assay.
Progesterone binding was measured using the dextran-coated charcoal adsorption technique. […] Each concentration was done in triplicate. Assay was ended with 300 μl of DCC (1% Norit A and 0.1% Dextran T-70 in Buffer B). After 10 min of incubation, tubes were centrifuged at 2,000×g for 10 min. and decanted in vials with 6 ml of BCS liquid scintillation (New England Nuclear, Dupont). The radioactivity was measured in a Beckman counter at a counting efficiency of 35%.

Structure (SMILES) | % Inhibition Progesterone Receptor E^−6 ([2]; Table 4′, E^−6) | % Inhibition Progesterone Receptor E^−8 ([2]; Table 4′, E^−8) | inhibition at 1 µM ([1]; Table 4′, E^−6) | inhibition at 0.01 µM ([1]; Table 4′, E^−8) | other results
CC1(C)CC[C@@]2(CC[C@H]3[C@@H]4CCc5c(cc(Br)c(O)c5Br)[C@H]4CC[C@@]32C)OC1=O [EM-1382-CS] | 0% | 2% |  |  | % Inhibition Androgen Receptor E^−6 ([1]; Table 4′, E^−6): 0%; % Inhibition Androgen Receptor E^−8 ([1]; Table 4′, E^−8): 0%
CCS(=O)(=O)Oc1ccc2c(c1)CCC1C2CCC2(C)C1CCC21CCC(C)(C)C(=O)O1 (stereo not shown) [EM-1364-CS] | 0% | 0% | 0% | 0% | 
CC1(C)CCC2(CCC3C4CCc5cc(OS(C)(=O)=O)ccc5C4CCC32C)OC1=O (stereo not shown) [EM-1365-CS] | 2% | 2% | 0% | 0% | 
CC1(C)CC[C@@]2(CCC3C4CCc5cc(F)ccc5C4CC[C@@]32C)OC1=O (stereo partly shown) [EM-1157-CS] | 5% | 2% | 0% | 0% | 
CC1(C)CC[C@@]2(CCC3C4CCc5cc(C(=O)O)ccc5C4CC[C@@]32C)OC1=O (stereo partly drawn) [EM-1401, 3-Carboxy-1,3,5(10)-estratrien-17(R)-spiro-2′-(5′,5′-dimethyl-6′-oxo)tetrahydropyran] | 0% | 0% | 0% | 0% | 
CC1(C)CCC2(CCC3C4CCc5cc(O)c([N+](=O)[O-])cc5C4CCC32C)OC1=O (stereo not shown) [EM-1125-CS] | 7% | 5% | 1% | 2% | 
CCC[C@]1(F)CC2C3C=CC4=CC(=O)CC[C@]4(C)C3CC[C@]2(C)C1=O (stereo partly shown) [EM-1183] |  |  |  |  | inhibition at 1 µM ([1]; E^−6): 1%; inhibition at 0.01 µM ([1]; E^−8): 0%; % Inhibition Progesterone Receptor E^−6 ([2]; E^−6): 45%; % Inhibition Progesterone Receptor E^−8 ([2]; E^−8): 9%
COc1ccc(CC(=O)O[C@]2(C(C)=O)CCC3C4C=C(C)C5=CC(=O)C=C[C@]5(C)C4CC[C@@]32C)cc1 (stereo partly shown) [EM-1291] |  |  |  |  | % Inhibition Androgen Receptor ([1]; E^−6): 0%; % Inhibition Androgen Receptor ([1]; E^−8): 0%; % Inhibition Progesterone Receptor ([2]; E^−6): 33%; % Inhibition Progesterone Receptor ([2]; E^−8): 0%
COCCOc1cc2c(cc1C(F)(F)F)[C@H]1CC[C@@]3(C)[C@@H](CC[C@@]34CCC(C)(C)C(=O)O4)[C@@H]1CC2 [EM-1438, 3-(2′-Methoxyethoxy)-2-trifluoromethyl-1,3,5(10)-estratrien-17(R)-spiro-2′-(5′,5′-dimethyl-6′-oxo)tetrahydropyran] | 0% | 0% |  |  | % Inhibition Androgen Receptor E^−6 ([1]; Table 4′, E^−6): 10%; % Inhibition Androgen Receptor E^−8 ([1]; Table 4′, E^−8): 0%
CCCC(=O)OC1(C(C)=O)CCC2C3C=C(C)C4=CC(=O)CC(C)C4(C)C3CCC21C (stereo not shown) [CS-245] |  |  |  |  | % Inhibition Androgen Receptor ([1]; E^−6): 71%; % Inhibition Androgen Receptor ([1]; E^−8): 5%; % Inhibition Progesterone Receptor ([2]; E^−6): 26%; % Inhibition Progesterone Receptor ([2]; E^−8): 0%
CC1(C)CCC2(CCC3C4CCc5c(cc(Cl)c(OS(C)(=O)=O)c5Cl)C4CCC32C)OC1=O (stereo not shown) [EM-1392-CS] | 2% | 2% | 0% | 0% | 
CC1(C)CCC2(CCC3C4CCc5cc(OCCN6CCCCC6)ccc5C4CCC32C)OC1=O [EM-1390-CS, 3-(N-piperidyl-ethyl)-1,3,5(10)-estratrien-17(R)-spiro-2′-(5′,5′-dimethyl-6′-oxo)-tetrahydropyran] | 2% | 0% | 0% | 0% | 
CCOc1ccc2c(c1)CCC1C2CC[C@@]2(C)C1CC[C@@]21CCC(C)(C)C(=O)O1 (stereo partly drawn) [EM-1369, 3-Ethoxy-1,3,5(10)-estratrien-17(R)-spiro-2′-(5′,5′-dimethyl-6′-oxo)-tetrahydropyran] | 3% | 1% | 1% | 0% | 
COCCOc1ccc2c(c1)C(=O)CC1C2CCC2(C)C1CCC21CCC(C)(C)C(=O)O1 (stereo not shown) [EM-1408-CS] | 0% | 0% | 0% | 0% | 
COCCOc1cc2c(cc1C#N)C1CC[C@@]3(C)C(CC[C@@]34CCC(C)(C)C(=O)O4)C1CC2 (stereo partly shown) [EM-1396] | 0% | 0% | 2% | 0% | 
COCCOc1cc2c(cc1C(=O)OC)C1CC[C@@]3(C)C(CC[C@@]34CCC(C)(C)C(=O)O4)C1CC2 (stereo partly drawn) [EM-1402-CS, 2-Carbomethoxy-3-(2″-methoxyethyloxy)-1,3,5(10)-estratrien 17(R)-spiro-2′-(5′,5′-dimethyl-6′-oxo)tetrahydropyran] | 4% | 2% | 0% | 0% | 
CC(=O)O[C@]1(C(C)=O)CCC2C3C=C(C)C4=CC(=O)CC[C@]4(C)C3CC[C@@]21C (stereo partly shown) [megestrol acetate, reference compound] |  |  |  |  | % Inhibition Progesterone Receptor ([2]; * E^−5): 97* %; % Inhibition Progesterone Receptor ([2]; * E^−7): 36* %; % Inhibition Progesterone Receptor ([2]; E^−6): 77%; % Inhibition Progesterone Receptor ([2]; E^−8): 3%
CCCC(=O)O[C@]1(C)C(=O)CCC2C3C=C(C)C4=CC(=O)CC[C@]4(C)C3CC[C@@]21C (stereo partly shown) [EM-1078] |  |  |  |  | inhibition at 1 µM ([1]; read-out: % Inhibition Androgen Receptor E^−6): 83%; inhibition at 0.01 µM ([1]; read-out: % Inhibition Androgen Receptor E^−8): 7%; % Inhibition Progesterone Receptor E^−6 ([2]; E^−6): 53%; % Inhibition Progesterone Receptor E^−8 ([2]; E^−8): 0%
COc1ccc2c(c1)CCC1C2CCC2(C)C1CCC21CCC(C)(C)C(=O)O1 (stereo not shown) [EM-1370] | 0% | 0% | 2% | 3% | 
